Laboratory results reported in publication PMC4595804, “A strategy to discover decoy chemokine ligands with an anti-inflammatory activity” (Scientific Reports, 2015).

Assays:
CCR4+ HUT78 cells = experiment: HUT78 chemotaxis: compounds alone or preincubated with the cells (antagonist protocol); format: cell-based, human; details: for chemotactic activity of the compound by itself: HUT78 cells, no chemokine; for inhibition of CCR4+ HUT78 T cell migration, compound preincubated with the cells: receptor antagonist protocol, 1 μM, 3 nM CCL17 or CCL22
Description: Cell migration was carried out in RPMI1640-BSA (0.1%) using Transwell 96-well plates (Corning Costar, 5 μm pore size, polycarbonate membranes). […] Lower wells contained the same medium diluted with DMSO or chemokine (3 nM CCL17 or CCL22).
0.1% BSA using Transwell 96-well plates (Corning Costar, 5µm pore size, polycarbonate […]
the same medium diluted with DMSO or chemokine (3nM CCL17 or CCL22). In neutraligand inhibition studies, prior to their use, CCL17 (a) and CCL22 (b) were pre-incubated with […]
in the lower compartment. For characterization of the antagonist properties, the compounds were pre-incubated with the cells in the upper compartment. C-021 (1µM, stripped bars), the CCR4 receptor antagonist, was used as a control in both incubation protocols. Results are expressed as the percentage of cells that migrated to the lower chamber. Data represent the means±SD. Experiments were performed in triplicate.
(1 picture or pasted object on this page, not shown here)

[1] = test system: Balb/c mice sensitized and challenged with OVA; experiment: Mouse model of allergic eosinophilic airway inflammation (OVA), BAL cell counts; format: in vivo; details: vs vehicle-treated OVA mice; for overall number of inflammatory cells in BALF: 350 μmol/kg I.P. 2 h before each challenge; for CD4+ T cells in BALF / CD11c+F4/80− dendritic cells in BALF / T cells in BALF / neutrophil counts in BALF / number of CD11c+F4/80+ macrophages in BALF / recruited eosinophils in BALF: 350 μmol/kg I.P.
Description: The differential number of cells recovered in BAL fluid 24 h after the last challenge was counted by flow cytometry. Live leukocytes were identified as CD45^+DAPI^− cells then differentiated into T cells (CD11b^lowCD19^−CD3^+), CD4^+T cells (CD11b^lowCD19^−CD3^+CD4^+), eosinophils (CD11b^+CD11c^−GR1^−), neutrophils (CD11b^+CD11c^−GR1^+), macrophages (CD11b^+GR1^−CD11c^+F4/80^+), dendritic cells (CD11b^+GR1^−CD11c^+F4/80^−).
Nine week-old male Balb/c mice (Janvier) were sensitized on days 1 and 7 by intraperitoneal injection of ovalbumin (OVA, 50μg, grade V, Sigma-Aldrich) adsorbed on aluminium hydroxide (2 mg, Sigma-Aldrich) in PBS. Mice were challenged intranasally with OVA (10 μg) in 25μl of saline on days 18–21. Control mice received intranasal administrations of saline alone. […] Animal experimentation was approved by the local ethics committee (Comité Régional d’Ethique en Matière d’Expérimentation Animale de Strasbourg CREMEAS) and carried out in accordance with the approved guidelines. Collection of the bronchoalveolar lavage fluid (BALF) was performed 24 h after the last OVA challenge as described previously. Cell counts were assessed by flow cytometry (LSRII® cytometer, BD bioscience). BAL cells were added with FCblock (5 μl, 553142, BD bioscience) in a black microplate, incubated for 20 min at room temperature. Then, marker antibodies were added: CD11c-FITC (557400, BD bioscience), Gr-1-Pe-eFluor610 (61-5931-82, eBioscience), CD11b-APC-Cy7 (557657, BD bioscience), CD45-AlexaFluor700 (103128, BioLegend), CD3-BV605 (564009, BD bioscience), CD4-PerCP-Cy5.5 (45-0042-82, eBioscience), F4/80-PE (12-4801-82, eBioscience). Antibodies were incubated for 30 min before DAPI (5 μl, BD bioscience) addition, and flow cytometry was performed immediately.

SMILES: O=C(OCC(O)CO)c1ccccc1O (stereo not drawn) [GPN136, 2,3-dihydroxypropyl 2-hydroxybenzoate]
- chemotactic activity of the compound by itself (CCR4+ HUT78 cells): devoid of chemotactic activity
- inhibition of CCR4+ HUT78 T cell migration, compound preincubated with the cells (CCR4+ HUT78 cells): no ability to inhibit
- overall number of inflammatory cells in BALF [1]: significantly reduced
- CD4+ T cells in BALF [1]: significantly reduced
- CD11c+F4/80− dendritic cells in BALF [1]: significantly reduced
- T cells in BALF [1]: significantly reduced
- neutrophil counts in BALF [1]: did not
- number of CD11c+F4/80+ macrophages in BALF [1]: not modified
- recruited eosinophils in BALF [1]: significantly reduced

SMILES: CC(C)=CCn1cnc2c1c(=O)n(C)c(=O)n2C [GPN279, 1,3-dimethyl-7-(3-methylbut-2-enyl)-1H-purine-2,6(3H, 7H)-dione]
- chemotactic activity of the compound by itself (CCR4+ HUT78 cells): devoid of chemotactic activity
- inhibition of CCR4+ HUT78 T cell migration, compound preincubated with the cells (CCR4+ HUT78 cells): no ability to inhibit
- overall number of inflammatory cells in BALF [1]: significantly reduced
- CD4+ T cells in BALF [1]: significantly reduced
- CD11c+F4/80− dendritic cells in BALF [1]: significantly reduced
- T cells in BALF [1]: significantly reduced
- neutrophil counts in BALF [1]: significantly inhibited
- number of CD11c+F4/80+ macrophages in BALF [1]: not modified
- recruited eosinophils in BALF [1]: significantly reduced
